The test concerns Plasmodium berghei. Description: Luciferase/luciferin-expressing antifolate-resistant parasites were used to infect a culture of HepG2 cells that were pre-incubated with compounds. Infected hepatocytes emit light due to the luciferase reaction. Assay results are presented as the percent inhibition of light emission compared to control. […]. It is filed as functional. Conditions: sporozoite; for IC90: read-out: LUCIFERASE INFECTION ASSAY - IC90.

Setting [1] is: read-out: LUCIFERASE INFECTION ASSAY - IC50.

For the molecule `CCc1ccccc1Nc1nc(N)nc(CN2CCN(S(=O)(=O)Cc3ccccc3)CC2)n1`, the IC90 is more than 10 µM. Moreover, under setting [1], the IC50 is more than 10 µM.
Consider `CC(C)Cc1ccc(C(C)NC(=O)c2ccc(O)nc2)cc1` (centres undefined), for which the IC90 was more than 10 µM. For the same molecule, the IC50 under setting [1] was more than 10 µM.
With `Cc1ccc(S(=O)(=O)/N=C2\C=C(NS(=O)(=O)c3ccc(C)cc3)C(=O)c3ccccc32)cc1`, the IC90 was more than 10 µM. In addition, the IC50 (PBLUC_HILL_SLOPE 2.17, PBLUC_R_SQUARED 0.652, read-out: LUCIFERASE INFECTION ASSAY - IC50) is 5.51 µM.
As to `Cc1oc(-c2ccccc2)nc1C(=O)N(C)CC(=O)Nc1ccc(N2CCOCC2)cc1`, the IC90 is more than 10 µM. In addition, the IC50 (FFLUC_HILL_SLOPE 0.476, FFLUC_R_SQUARED 0.109, HEPG2TOX_HILL_SLOPE 11.6, HEPG2TOX_R_SQUARED 0.88, read-out: LUCIFERASE INFECTION ASSAY - IC50) was more than 10 µM.
For the molecule `C=CCn1c(O)nnc1Sc1ncc([N+](=O)[O-])s1`, the IC90 was more than 11.6 µM. For the same molecule, under setting [1], the IC50 was more than 11.6 µM.
In the case of `c1ccc(Oc2cccc(-c3ccc4nnc(-c5ccc6c(c5)OCO6)n4c3)c2)cc1`, the IC90 was more than 10 µM. Besides, where the note is “PBLUC_HILL_SLOPE 1.92, PBLUC_R_SQUARED 0.18, read-out: LUCIFERASE INFECTION ASSAY - IC50”, the IC50 worked out at 8.29 µM.
On to `CCOC(=O)c1c(C)[nH]c(C(=O)Nc2cccc(C)n2)c1C`, for which the IC90 is more than 10 µM. Besides, the IC50 (PBLUC_HILL_SLOPE 0.344, PBLUC_R_SQUARED 0.589, read-out: LUCIFERASE INFECTION ASSAY - IC50) amounted to 0.0971 µM.
In the case of `Cn1cc(C(=O)Nc2ccc(-c3nc4ccccc4[nH]3)cc2)c(-c2ccc3c(c2)OCCCO3)n1`, the IC90 worked out at 4.31 µM. For the same molecule, where the note is “HEPG2TOX_HILL_SLOPE 2.56, HEPG2TOX_R_SQUARED 0.953, PBLUC_HILL_SLOPE 7.83, PBLUC_R_SQUARED 0.745, read-out: LUCIFERASE INFECTION ASSAY - IC50”, the IC50 stood at 3.25 µM.
Turning to `O=C(COc1ccccc1-c1ccccc1)NCC1CCCCC1`, the concentration for an effect of 90% (IC90) is more than 10 µM. Also, the IC50 under setting [1] was more than 10 µM.
In the case of `CCN(CC)C(=O)COC(=O)c1ccc2c(c1)C(=O)N(CCC(C)C)C2=O`, the IC90 was more than 10 µM. Moreover, the IC50 under setting [1] is more than 10 µM.
Regarding `Clc1cccc(-c2cnn3c(NCCCN4CCOCC4)ccnc23)c1`, the IC90 was more than 8.87 µM. The IC50 (PBLUC_HILL_SLOPE 1.37, PBLUC_R_SQUARED 0.567, read-out: LUCIFERASE INFECTION ASSAY - IC50) amounted to 3.66 µM.
Take `S=C1CCc2ccccc2N1Cc1ccccc1`: the IC90 is more than 13 µM. Where the note is “PBLUC_HILL_SLOPE 2.45, PBLUC_R_SQUARED 0.245, read-out: LUCIFERASE INFECTION ASSAY - IC50”, the IC50 is more than 13 µM.
On to `C/C(=N\O)c1cnc(-c2ccccc2)s1`, for which the IC90 was found to be 14.8 µM. The IC50 (HEPG2TOX_HILL_SLOPE 1.93, HEPG2TOX_R_SQUARED 0.937, PBLUC_HILL_SLOPE 2.91, PBLUC_R_SQUARED 0.0759, read-out: LUCIFERASE INFECTION ASSAY - IC50) worked out at 6.95 µM.
Take `O=C(O)COc1ccccc1/C=C1\NC(=S)NC1=O`: the IC90 is more than 10 µM. For the same molecule, the IC50 under setting [1] was more than 10 µM.
`CC(=O)Nc1cccc(-c2ccnc3c2CC(C(=O)NCc2cccs2)O3)c1` (centres undefined): the IC90 was 3.24 µM. Further, the IC50 (FFLUC_HILL_SLOPE 58.8, FFLUC_R_SQUARED 0.264, HEPG2TOX_HILL_SLOPE 13.5, HEPG2TOX_R_SQUARED 0.74, PBLUC_HILL_SLOPE 13.2, PBLUC_R_SQUARED 0.157, read-out: LUCIFERASE INFECTION ASSAY - IC50) was 2.74 µM.
Take `COc1ccc(CCNC2CCc3c(c(C(=O)N(C)C)nn3CC3CCCCC3)C2)cc1` (centres undefined): the IC90 was more than 7.52 µM. The IC50 (PBLUC_HILL_SLOPE 15.6, PBLUC_R_SQUARED 0.553, read-out: LUCIFERASE INFECTION ASSAY - IC50) stood at 7.33 µM.
`Nc1cc(-c2ccc(Br)s2)n[nH]1`: the IC90 is more than 10 µM. The IC50 under setting [1] is more than 10 µM.
As to `COc1cc(C(F)(F)F)nc2ccc(C#CCOC(=O)c3ccccc3Cl)cc12`, the IC90 was more than 7.86 µM. Further, under setting [1], the IC50 was more than 7.86 µM.
Take `COc1cc(OC)c(C(=O)NC(C)C23CC4CC(CC(C4)C2)C3)cc1OC` (centres undefined): the IC90 turned out to be 9.64 µM. Besides, for the setting “PBLUC_HILL_SLOPE 2.98, PBLUC_R_SQUARED 0.335, read-out: LUCIFERASE INFECTION ASSAY - IC50”, the IC50 was 4.61 µM.
Take `COc1ccc(C(=O)/C(=C/c2ccc(C)cc2C)c2nc3ccccc3[nH]2)cc1`: the IC90 amounted to 4.07 µM. Further, the IC50 (FFLUC_HILL_SLOPE 13.7, FFLUC_R_SQUARED 0.282, HEPG2TOX_HILL_SLOPE 10.4, HEPG2TOX_R_SQUARED 0.664, PBLUC_HILL_SLOPE 15.9, PBLUC_R_SQUARED 0.277, read-out: LUCIFERASE INFECTION ASSAY - IC50) was determined as 3.54 µM.
Turning to `CCOc1ccc(S(=O)(=O)Nc2cc3c(C(=O)OC(C)C)c(C)oc3c3ccccc23)cc1`, the IC90 worked out at 2.86 µM. Under “HEPG2TOX_HILL_SLOPE 2.94, HEPG2TOX_R_SQUARED 0.937, PBLUC_HILL_SLOPE 3.2, PBLUC_R_SQUARED 0.642, read-out: LUCIFERASE INFECTION ASSAY - IC50”, the IC50 stood at 1.44 µM.
Take `O=C(Nc1cccc(C(F)(F)F)c1)Nc1cnn(-c2ccc(Cl)cc2)c1C(F)(F)F`: the IC90 is more than 7.35 µM. Further, the IC50 (PBLUC_HILL_SLOPE 0.579, PBLUC_R_SQUARED 0.471, read-out: LUCIFERASE INFECTION ASSAY - IC50) was 1.04 µM.
For the molecule `CC(C)NC(=O)c1csc(C(O)c2ccc(C(C)(C)C)cc2)n1` (centres undefined), the IC90 is 8.8 µM. In addition, the IC50 (HEPG2TOX_HILL_SLOPE 1.76, HEPG2TOX_R_SQUARED 0.8, PBLUC_HILL_SLOPE 2.52, PBLUC_R_SQUARED 0.456, read-out: LUCIFERASE INFECTION ASSAY - IC50) worked out at 3.68 µM.
For the molecule `O=C1C(=O)N(Cc2ccc(F)cc2)c2c1cccc2C(F)(F)F`, the IC90 is 6.88 µM. Moreover, the IC50 (HEPG2TOX_HILL_SLOPE 12.5, HEPG2TOX_R_SQUARED 0.837, PBLUC_HILL_SLOPE 3.51, PBLUC_R_SQUARED 0.677, read-out: LUCIFERASE INFECTION ASSAY - IC50) was 3.68 µM.
Regarding `O=C(NNC(=O)c1cc2c(s1)CCC2)c1csc(COc2ccc(F)cc2)n1`, the IC90 is 8.59 µM. Further, for the setting “PBLUC_HILL_SLOPE 2.84, PBLUC_R_SQUARED 0.402, read-out: LUCIFERASE INFECTION ASSAY - IC50”, the IC50 worked out at 3.96 µM.
Regarding `CC(C)C(Nc1ccc(C(F)(F)F)cc1Cl)C(=O)Nc1nc(-c2ccccc2Cl)cs1` (centres undefined), the IC90 was 6.73 µM. Besides, the IC50 (HEPG2TOX_HILL_SLOPE 4.1, HEPG2TOX_R_SQUARED 0.707, PBLUC_HILL_SLOPE 4.35, PBLUC_R_SQUARED 0.154, read-out: LUCIFERASE INFECTION ASSAY - IC50) stood at 4.06 µM.
As for `Fc1ccc(Oc2ccc(CNc3ncnc4nc[nH]c34)cn2)cc1`, the IC90 was more than 10 µM. In addition, under “HEPG2TOX_HILL_SLOPE 3.2, HEPG2TOX_R_SQUARED 0.895, PBLUC_HILL_SLOPE 3.02, PBLUC_R_SQUARED 0.0659, read-out: LUCIFERASE INFECTION ASSAY - IC50”, the half-maximal inhibitory concentration (IC50) is 5.84 µM.

As a reminder, the IC50 is the concentration needed to halve the response being measured. The IC90 is the concentration needed for an effect of 90%.

The values above are taken from ChEMBL document CHEMBL4483862, “Open-source discovery of chemical leads for next-generation chemoprotective antimalarials” (2018).
